Measured values published in patent EP4603105A1, “PHARMACEUTICAL COMPOSITION CONTAINING CYCLIC COMPOUND HAVING SELECTIVE KRAS INHIBITORY EFFECT AGAINST HRAS AND NRAS” (CHUGAI SEIYAKU KABUSHIKI KAISHA, priority 2022, dated 2024).
*1 amine or outer side, *2 acyl side, *3 side chain or, on linkers, in order; H or OH if unused. Where a SMILES comes first, the peptide text is derived from it. Bridges are numbered along the chain shown (N, C = ends). [ ]: non-standard residue; d: D form. The star is where a group is joined. hPhe(3-Cl-4-CF3) = N[C@@H](CCc1ccc(C(F)(F)F)c(Cl)c1)C(=O)O; X51 = CCCN([C@@H](Cc1ccc(OC(F)(F)F)cc1)C(=O)[*:2])[*:1]; X37 = Cc1ccc(C[C@@H](C(=O)[*:2])N(CCC(C)C)[*:1])cc1; X44 = Cc1ccc(C[C@@H](C(=O)[*:2])N(CC2CCC2)[*:1])cc1; X50 = C=CCN([C@@H](Cc1ccc(C)cc1)C(=O)[*:2])[*:1]; X52 = C#CCN([C@@H](Cc1ccc(C)cc1)C(=O)[*:2])[*:1]; NMeGly(cPent) = CN[C@H](C(=O)O)C1CCCC1; NMeD = CN[C@@H](CC(=O)O)C(=O)O; NMeL = CN[C@@H](CC(C)C)C(=O)O; Morpholide = C1CN(*)CCO1; NMeA = CN[C@@H](C)C(=O)O; Ac5c = NC1(C(=O)O)CCCC1; Aze = O=C(O)[C@@H]1CCN1; Sar = CNCC(=O)O

target: GDP-bound NRAS wild-type protein (Homo sapiens, UniProt P01111); assay: Binding to NRAS by surface plasmon resonance (SPR), KD and KD ratio to KRAS; conditions: ratio of KD for GDP-bound NRAS wild-type protein to KD for KRAS
Procedure: (§1) Surface plasmon resonance was used to analyze the binding affinity of compounds for KRAS, NRAS, and HRAS. The apparatus used was Biacore 8K, 8K+, or T200 (GE Healthcare), and the running buffer used was HBS (10 mM HEPES-NaOH, 150 mM NaCl, pH 7.4) containing 1 mM DTT, 10 mM MgCl2, 0.01% Tween 20, 10 µM GDP, and 4% DMSO.
(§2) Biotinylated Avi-tag fusion KRAS, NRAS, and HRAS proteins were expressed in E. coli BL21 (DE3) strains, and after cells were homogenized, they were purified using Streptavidin Mutein Matrix and Superdex 75. After purification, GDP-loaded KRAS, NRAS, and HRAS proteins were immobilized on the surface of Sensor Chip CAP (Cytiva) coated with Biotin CAPture Reagent in an immobilization amount of about 100 to 300 RU. Binding of each compound was evaluated by the Single Cycle Kinetics method, and a running buffer or a compound solution was added to the RAS protein non-immobilized surface and the immobilized surface to obtain a binding response. The flow rate was set to 100 µL/min, and in the compound-adding cycle, compound solutions having different concentrations were intermittently added for 75 seconds each, starting from a low concentration. […] In the blank cycle, a running buffer was intermittently added and not the compound solution. The Biotin CAPture Reagent and RAS proteins were immobilized for each cycle, and at the end of each cycle, the sensor chip was regenerated by the regeneration solution appended to the Biotin CAPture Kit (Cytiva). Measurement was carried out at 30°C.
(§3) The resulting sensorgram was subjected to curve fitting based on a 1:1 binding model on Biacore Insight Evaluation Software or T200 Evaluation Software, and thereby the dissociation constant KD of each compound with respect to KRAS, NRAS, and HRAS was determined. […] Blank indicates a compound from which the KD value with respect to NRAS or HRAS was not obtained.

GDP-bound NRAS wild-type protein, sequence (P01111 whole entry): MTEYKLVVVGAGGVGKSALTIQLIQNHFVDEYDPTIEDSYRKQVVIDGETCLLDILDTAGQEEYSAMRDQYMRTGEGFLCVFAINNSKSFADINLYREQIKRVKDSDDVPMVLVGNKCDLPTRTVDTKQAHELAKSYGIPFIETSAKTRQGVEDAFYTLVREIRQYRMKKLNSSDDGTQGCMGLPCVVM

Row | SMILES | NRAS /KRAS
1 | CCC[C@H]1C(=O)N[C@@H]([C@@H](C)CC)C(=O)N(C2CC2)CC(=O)N(C)[C@H]2C/C=C\CCN(C2=O)[C@@H](Cc2ccc(C)cc2)C(=O)N(C)CC(=O)N[C@@H](CCc2ccc(C(F)(F)F)c(C3CC3)c2)C(=O)N2C[C@H](OCC)C[C@H]2C(=O)NC2(CC(C)(C)C2)C(=O)N(C)[C@@H](C2CCCC2)C(=O)N(C)[C@H](C(=O)N(C)C)CC(=O)N1C [PP2881] | A (a compound having 10 or more and less than 20 is denoted as A)
2 | CCO[C@@H]1C[C@H]2C(=O)NC3(CC(C)(C)C3)C(=O)N(C)[C@@H](C3CCCC3)C(=O)N(C)[C@H](C(=O)N3CCCCC3)CC(=O)N(C)[C@H]3CCCCc4ccc(cc4)C[C@@H](C(=O)N(C)CC(=O)N[C@@H](CCc4ccc(C(F)(F)F)c(OC)c4)C(=O)N2C1)N1CC/C=C\C[C@@H](C1=O)N(C)C(=O)CN(C)C(=O)[C@H]([C@@H](C)CC)NC3=O [PP3093] | A (a compound having 10 or more and less than 20 is denoted as A)

target: HRAS wild-type protein (Homo sapiens, UniProt P01112); assay: Binding to HRAS by surface plasmon resonance (SPR), KD and KD ratio to KRAS; conditions: ratio of KD for HRAS wild-type protein to KD for KRAS
Procedure: as §1, §2, §3

HRAS wild-type protein, sequence (P01112 whole entry): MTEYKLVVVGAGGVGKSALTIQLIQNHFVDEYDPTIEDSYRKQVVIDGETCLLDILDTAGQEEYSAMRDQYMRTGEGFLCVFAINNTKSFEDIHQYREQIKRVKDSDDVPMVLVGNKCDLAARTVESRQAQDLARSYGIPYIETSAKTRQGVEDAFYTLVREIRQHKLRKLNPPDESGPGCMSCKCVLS

Row | SMILES | HRAS /KRAS
3 | CCC[C@H]1C(=O)N[C@@H]([C@@H](C)CC)C(=O)N(C2CC2)CC(=O)N(C)[C@H]2C/C=C\CCN(C2=O)[C@@H](Cc2ccc(C)cc2)C(=O)N(C)CC(=O)N[C@@H](CCc2ccc(C(F)(F)F)c(C3CC3)c2)C(=O)N2C[C@H](OCC)C[C@H]2C(=O)NC2(CC(C)(C)C2)C(=O)N(C)[C@@H](C2CCCC2)C(=O)N(C)[C@H](C(=O)N(C)C)CC(=O)N1C [PP2881] | A (a compound having 10 or more and less than 20 is denoted as A)
4 | CCO[C@@H]1C[C@H]2C(=O)NC3(CC(C)(C)C3)C(=O)N(C)[C@@H](C3CCCC3)C(=O)N(C)[C@H](C(=O)N3CCCCC3)CC(=O)N(C)[C@H]3CCCCc4ccc(cc4)C[C@@H](C(=O)N(C)CC(=O)N[C@@H](CCc4ccc(C(F)(F)F)c(OC)c4)C(=O)N2C1)N1CC/C=C\C[C@@H](C1=O)N(C)C(=O)CN(C)C(=O)[C@H]([C@@H](C)CC)NC3=O [PP3093] | A (a compound having 10 or more and less than 20 is denoted as A)

test system: human lung cancer strain NCI-H441; assay: not given; format: cell-based; conditions: not given
Procedure: A test compound was dispensed into a U-bottom 384-well plate as 40 nL serially diluted dimethyl sulfoxide solutions using a liquid handler Echo (LABCYTE). […] This cell suspension was dispensed in an amount of 40 µL per well into a plate containing the test compound, and cultured at 37°C in a 5% carbon dioxide gas incubator. Four days later, 20 µL of CellTiter-Glo (registered trademark) (Promega) was added to each well and […] was measured. […]

Row | SMILES | IC50 [nM]
5 | CC[C@H](C)[C@@H]1NC(=O)[C@H](CC(C)C)N(C)C(=O)C[C@@H](C(=O)N2CCOCC2)N(C)C(=O)[C@H](C2CCCC2)N(C)C(=O)C2(CCCC2)NC(=O)[C@@H]2CCCN2C(=O)[C@H](CCc2ccc(C(F)(F)F)c(Cl)c2)NC(=O)CN(C)C(=O)[C@H](Cc2ccc(C)cc2)N(CC2CCC2)C(=O)[C@@H]2CCN2C(=O)[C@H](C)N(C)C1=O [PP0083] ([NMeL]I[NMeA][Aze][X44][Sar][hPhe(3-Cl-4-CF3)]P[Ac5c][NMeGly(cPent)][NMeD]-Morpholide; lactam N-11) | 11.3
6 | C=CCN1C(=O)[C@@H]2CCN2C(=O)[C@H](C)N(C)C(=O)[C@H]([C@@H](C)CC)NC(=O)[C@H](CC(C)C)N(C)C(=O)C[C@@H](C(=O)N2CCOCC2)N(C)C(=O)[C@H](C2CCCC2)N(C)C(=O)C2(CCCC2)NC(=O)[C@@H]2CCCN2C(=O)[C@H](CCc2ccc(C(F)(F)F)c(Cl)c2)NC(=O)CN(C)C(=O)[C@@H]1Cc1ccc(C)cc1 [PP0088] ([NMeL]I[NMeA][Aze][X50][Sar][hPhe(3-Cl-4-CF3)]P[Ac5c][NMeGly(cPent)][NMeD]-Morpholide; lactam N-11) | 4.1
7 | C#CCN1C(=O)[C@@H]2CCN2C(=O)[C@H](C)N(C)C(=O)[C@H]([C@@H](C)CC)NC(=O)[C@H](CC(C)C)N(C)C(=O)C[C@@H](C(=O)N2CCOCC2)N(C)C(=O)[C@H](C2CCCC2)N(C)C(=O)C2(CCCC2)NC(=O)[C@@H]2CCCN2C(=O)[C@H](CCc2ccc(C(F)(F)F)c(Cl)c2)NC(=O)CN(C)C(=O)[C@@H]1Cc1ccc(C)cc1 [PP0090] ([NMeL]I[NMeA][Aze][X52][Sar][hPhe(3-Cl-4-CF3)]P[Ac5c][NMeGly(cPent)][NMeD]-Morpholide; lactam N-11) | 1.9
8 | CC[C@H](C)[C@@H]1NC(=O)[C@H](CC(C)C)N(C)C(=O)C[C@@H](C(=O)N2CCOCC2)N(C)C(=O)[C@H](C2CCCC2)N(C)C(=O)C2(CCCC2)NC(=O)[C@@H]2CCCN2C(=O)[C@H](CCc2ccc(C(F)(F)F)c(Cl)c2)NC(=O)CN(C)C(=O)[C@H](Cc2ccc(C)cc2)N(CCC(C)C)C(=O)CN(C)C(=O)CN(C)C1=O [PP0098] ([NMeL]I[Sar][Sar][X37][Sar][hPhe(3-Cl-4-CF3)]P[Ac5c][NMeGly(cPent)][NMeD]-Morpholide; lactam N-11) | 9.4
9 | CCCN1C(=O)[C@@H]2CCN2C(=O)[C@H](C)N(C)C(=O)[C@H]([C@@H](C)CC)NC(=O)[C@H](CC(C)C)N(C)C(=O)C[C@@H](C(=O)N2CCOCC2)N(C)C(=O)[C@H](C2CCCC2)N(C)C(=O)C2(CCCC2)NC(=O)[C@@H]2CCCN2C(=O)[C@H](CCc2ccc(C(F)(F)F)c(Cl)c2)NC(=O)CN(C)C(=O)[C@@H]1Cc1ccc(OC(F)(F)F)cc1 [PP0136] ([NMeL]I[NMeA][Aze][X51][Sar][hPhe(3-Cl-4-CF3)]P[Ac5c][NMeGly(cPent)][NMeD]-Morpholide; lactam N-11) | 19.6
